# Reference: US20030125269A1, “T-TYPE CALCIUM CHANNEL” (priority 1998, published 2003)
# Entries after “also recorded” stand apart in the source; their conditions may differ. Structures can show the parent of a compound that is named as a salt.
# What was measured:
# [1] = system: INS-1 cells; assay: Basal [Ca^2+]i in INS-1 cells by fura-2 fluorescence; assay type: cell-based, rat
# Method: [Ca^2+]i was directly measured by the ratio of fluorescence excitations at Ca^2+-bound […], and then the ratio was converted to the calcium concentration. The bath solution contained […], 4 mM KCl, 2 mM CaCl2, and 2 mM MgCl2.
# The effect of basal [Ca^2+]i on Ca^2+ influx was examined using the Ca^2+ dye indicator fura-2 and fluorescence measurements. Voltage-dependent Ca^2+ influx in a single cell was obtained by perfusion of an osmotically balanced solution containing 50 mM KCl into the recording chamber. […] The resting basal [Ca^2+]i in INS-1 cells was approximately 60-80 nM under the experimental conditions. [Ca^2+]i was determined by a standard curve obtained from a fura-2 calcium imaging kit (Molecule Probes). The empirical Kd obtained for calcium binding to fura-2 in the system was 296±20 nM. When basal [Ca^2+]i remains low, subsequent voltage stimulation with 50 KCl induces rapid and large calcium influx into the cell and these calcium changes are stereotyped upon repetitive stimulation when basal calcium is restored (FIG. 10). In this experiment, following the 50 KCl depolarization, the cell was repolarized by perfusion of the original 5 mM KCl solution. After repolarization, basal [Ca^2+]i slowly reset and then a second 50 KCl depolarization induced a similar [Ca^2+]i transient. When the basal calcium is not allowed to reset, a defect in the second voltage induced calcium transient occurs (FIG. 11). […] Therefore effectors of basal [Ca^2+]i will have important impact on the amount of calcium that can enter the cell.
# [2] = target: T-type Ca^2+ current (Rattus norvegicus, UniProt O54898); assay: Patch clamp recording of T-type Ca^2+ current in insulin-secreting (INS-1) cells; assay type: cell-based; details: for reversibility of the inhibition of T-type Ca^2+ current: small volume delivered near the cell
# Sequence of T-type Ca^2+ current (Rattus norvegicus, UniProt O54898) (O54898 whole entry): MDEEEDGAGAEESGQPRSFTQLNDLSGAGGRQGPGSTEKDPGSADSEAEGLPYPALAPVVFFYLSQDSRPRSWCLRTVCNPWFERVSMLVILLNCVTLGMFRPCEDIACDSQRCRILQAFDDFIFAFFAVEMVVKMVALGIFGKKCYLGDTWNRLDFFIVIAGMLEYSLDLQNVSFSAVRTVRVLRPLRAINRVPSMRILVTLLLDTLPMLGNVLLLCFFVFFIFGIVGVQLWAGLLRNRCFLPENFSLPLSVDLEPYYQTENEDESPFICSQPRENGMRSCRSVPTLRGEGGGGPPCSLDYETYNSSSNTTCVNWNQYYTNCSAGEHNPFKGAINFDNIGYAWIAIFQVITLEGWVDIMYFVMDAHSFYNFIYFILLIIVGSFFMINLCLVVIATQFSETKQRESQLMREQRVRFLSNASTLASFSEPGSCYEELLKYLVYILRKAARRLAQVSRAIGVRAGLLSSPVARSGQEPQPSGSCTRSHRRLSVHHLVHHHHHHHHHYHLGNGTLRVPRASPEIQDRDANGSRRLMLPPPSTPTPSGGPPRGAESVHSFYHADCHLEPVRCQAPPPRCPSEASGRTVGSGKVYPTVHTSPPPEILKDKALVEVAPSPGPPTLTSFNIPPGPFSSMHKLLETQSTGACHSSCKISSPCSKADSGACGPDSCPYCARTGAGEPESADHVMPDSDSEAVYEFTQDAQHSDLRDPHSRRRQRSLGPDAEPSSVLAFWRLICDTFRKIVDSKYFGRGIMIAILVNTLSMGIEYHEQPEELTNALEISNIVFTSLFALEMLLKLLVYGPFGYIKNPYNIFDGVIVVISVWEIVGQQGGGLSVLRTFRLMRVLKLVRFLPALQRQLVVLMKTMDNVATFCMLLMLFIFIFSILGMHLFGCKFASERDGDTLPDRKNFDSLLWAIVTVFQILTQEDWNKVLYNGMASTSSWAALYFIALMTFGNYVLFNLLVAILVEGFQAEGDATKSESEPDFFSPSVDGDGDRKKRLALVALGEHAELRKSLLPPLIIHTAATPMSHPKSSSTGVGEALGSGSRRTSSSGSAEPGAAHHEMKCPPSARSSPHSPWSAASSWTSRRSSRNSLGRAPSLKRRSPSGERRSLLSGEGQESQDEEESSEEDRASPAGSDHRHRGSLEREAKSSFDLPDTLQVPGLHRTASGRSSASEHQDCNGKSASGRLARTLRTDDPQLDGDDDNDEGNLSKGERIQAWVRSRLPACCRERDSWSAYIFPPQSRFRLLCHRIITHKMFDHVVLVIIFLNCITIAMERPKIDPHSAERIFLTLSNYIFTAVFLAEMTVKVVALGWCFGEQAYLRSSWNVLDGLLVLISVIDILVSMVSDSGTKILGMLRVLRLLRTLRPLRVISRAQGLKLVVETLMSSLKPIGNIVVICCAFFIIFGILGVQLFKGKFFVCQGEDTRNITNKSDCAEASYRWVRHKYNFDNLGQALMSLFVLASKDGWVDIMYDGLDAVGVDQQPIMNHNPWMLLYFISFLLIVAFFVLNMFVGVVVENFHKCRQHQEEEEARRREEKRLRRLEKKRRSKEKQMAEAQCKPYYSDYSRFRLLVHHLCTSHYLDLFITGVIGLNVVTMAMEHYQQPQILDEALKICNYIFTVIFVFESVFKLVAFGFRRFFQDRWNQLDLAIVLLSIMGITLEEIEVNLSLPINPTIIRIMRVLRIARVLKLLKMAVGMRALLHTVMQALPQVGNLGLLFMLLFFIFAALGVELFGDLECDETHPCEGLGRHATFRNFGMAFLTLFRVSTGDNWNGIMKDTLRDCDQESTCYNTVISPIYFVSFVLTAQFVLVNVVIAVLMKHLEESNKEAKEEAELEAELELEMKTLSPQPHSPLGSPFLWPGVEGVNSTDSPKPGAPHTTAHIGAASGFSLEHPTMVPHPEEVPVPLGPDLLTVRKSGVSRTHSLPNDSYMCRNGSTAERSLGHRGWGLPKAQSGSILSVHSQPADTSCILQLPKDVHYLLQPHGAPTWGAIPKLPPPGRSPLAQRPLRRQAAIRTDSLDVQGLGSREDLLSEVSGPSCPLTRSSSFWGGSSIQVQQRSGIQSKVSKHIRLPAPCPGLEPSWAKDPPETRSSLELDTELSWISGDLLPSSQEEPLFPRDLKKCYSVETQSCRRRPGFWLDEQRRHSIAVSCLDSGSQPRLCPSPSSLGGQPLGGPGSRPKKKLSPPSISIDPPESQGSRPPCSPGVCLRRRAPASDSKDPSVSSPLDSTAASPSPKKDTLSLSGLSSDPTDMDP
# Method: (§1) Cell Culture—INS-1 cells were cultured in RPMI 1640 medium containing 10% FBS, 25 U/ml penicillin, […] streptomycin and 50 μM mercaptoethanol in an atmosphere of 5% CO2 in air, at 37° C. for 2-5 days before recording.
# (§2) β-cells Electrophysiological recording—The whole-cell recordings were carried out by the standard “giga-seal” patch clamp technique (Hamill et al.). The whole-cell recording pipettes were made of hemocapillaries (Warner), pulled by a two-stage puller (PC-10, Narishige International, New York, N.Y.), and heat polished with a microforge (MF200-1, World Precision Instruments, Sarasota, Fla.) before use. Pipette resistance was in the range of 2-5 MΩ in the internal solution. The recordings were performed at room temperature (22-25° C.). Currents were recorded using an EPC-9 patch-clamp amplifier (HEKA) and filtered at 2.9 kHz. Data were acquired with Pulse/PulseFit software (HEKA). Voltage-dependent currents were corrected for linear leak and residual capacitance by using an on-line P/n subtraction paradigm.
# (§3) Solutions—The extracellular solution used in whole-cell Ca^2+ current recording contained (in mM): 10 CaCl21 110 tetraethylammonium-Cl (TEA-Cl), 10 CsCl, 10 N-2-hydroxyethylpiperazine-N′-2-ethanesulfonic acid (HEPES), 40 sucrose, 0.5 3,4-diaminopyridine, pH 7.3. The intracellular solution contained (in mM): 130 N-methyl-D-glucamine, 20 EGTA (free acid), 5 bis (2-aminophenoxy) ethane-N,N,N′,N′-tetraacetate (BAPTA), 10 HEPES, 6 MgCl2, 4 Ca(OH)2/pH was adjusted to 7.4 with methanesulfonate. 2 mM Mg-ATP was included in the pipette solution to minimize rundown of L-type Ca^2+ currents. For Perforated-patch recording, the extracellular solution contained (in mM): 26 Sucrose, 30 TEA-Cl, 10 HEPES, 5 KCl, 2 CaCl2, MgCl2, pH 7.3. The pipette solution contained (in mM): 65 CsOH, 65 CsMS, 20 sucrose, 10 HEPES, 10 MgCl2, 1 Ca(OH)2, pH 7.4.
# (§4) The T-type Ca^2+ current was measured at −30 mV when the membrane was held at −90 mV and the L-type current was measured at +20 mV when the membrane was held at −40 mV. The currents were measured twice at each concentration of mibefradil with 2 min in between measurements.
# (§5) A drug diffusing system was then used to test the reversibility of the antagonism of T- and L-type Ca^2+ currents by mibefradil. Small volumes (approximately 2 μl) of drugs were delivered in close proximity to the recording cell with a quartz capillary positioned by a micromanipulator. After administration, drugs diffused throughout the entire recording chamber containing 2 ml of bath solution. This drug diffusing system was used to test the reversibility of 30 μM of NiCl2 on the T-type Ca^2+ currents (FIG. 4).
# [3] = system: NIT-1 cells; assay: Spontaneous elevation of [Ca^2+]i in NIT-1 cells, Fluo-3 fluorescent imaging; assay type: cell-based, mouse; details: 10 μM, 3.3 mM glucose, 10 minute observation
# Method: NIT-1 cells were cultured in medium containing 3.3 mM glucose and preloaded with 2.5 μM Fluo-3 μM. The numbers of spontaneous calcium elevated cells were counted and compared to the total cells being used for a 10 minute observation period. 10 μM NiCl2 inhibited 90% of spontaneous elevation of basal Ca^2+.
# [4] = system: INS-1 cells; assay: Transient spontaneous calcium spikes in a single INS-1 cell, epi-fluorescence; assay type: cell-based, rat; details: 30 μM, bath solution without glucose
# Text: The cellular mechanism of the spontaneous elevation of intracellular Ca^2+ was investigated with the epi-fluorescence measurement method. […] The Role of T-type Ca^2+ channels in this spontaneous process was examined as well. […] These spontaneous calcium spikes may contribute to basal insulin secretion and control of basal [Ca^2+]i.
# [5] = system: INS-1 cells; assay: Action potentials (excitability) of INS-1 cells; assay type: cell-based, rat; details: 100 μM
# Method: Particularly, activation of T type Ca^2+ channels will increase the firing frequency of the depolarizing spikes mediated by opening L type Ca^2+ channels (FIG. 19A). Activation of T type Ca^2+ channel will also decrease the time of developing action potential elicited by up-threshold depolarizations (FIG. 19B).
# To further establish that T type Ca^2+ current enhances β-cells excitability, 100 μM NiCl2 was administered to effectively block T type Ca^2+ channels.
# [6] = system: INS-1 cells; assay: Glucose-induced insulin secretion in INS-1 cells; assay type: cell-based, rat; details: 11.1 mM glucose, variable concentrations of NiCl2
# [7] = system: HIT-T15; assay: Glucose-induced insulin secretion in HIT-T15 cells; assay type: cell-based; details: 11.1 mM glucose, variable concentrations of NiCl2
# [8] = system: LVA Ca^2+ current; assay: Cytokine-induced LVA Ca^2+ current in primary cultured mouse islet cells; assay type: cell-based; details: 10 μM; IL-1β 25 U/ml and IFNγ 300 U/ml for 6 h; n=4
# Method: The effects of chronic cytokine treatment on the voltage-sensitive Ca^2+ currents in primary cultured mouse islet cells was examined. After treatment with IL-1β (25 U/ml) and IFNγ (300 U/ml) for 6 h, an LVA Ca^2+ current was induced in these cells (FIG. 23A). This current was present in 48% of cytokine-treated mouse islet cells. No such current was observed when the cells were treated with either IL-1β or IFNγ alone. […] This LVA current has not been observed in non-treated cells. […] It has been reported that low concentration of NiCl2 selectively block LVA current, a profound […] in Ca^2+ current density was observed over the voltages between −20 and 20 mV.
# [9] = system: mouse islet cells; assay: Cytokine-induced increase in basal [Ca^2+]i in primary cultured mouse islet cells; assay type: cell-based; details: 10 μM; IL-1β 25 U/ml and IFNγ 300 U/ml for 6 h
# Text: LVA Ca^2+ channels are activated at low membrane potentials. This unique feature may allow then to regular [Ca^2+]i under nonstimulatory conditions. Indeed, basal [Ca^2+]i in cytokine-treated cells was approximately 3-fold higher than in nontreated cells (FIG. 24A).
# [10] = system: β-TC3 cells; assay: Cytokine-induced DNA fragmentation in β-TC3 cells; assay type: cell-based, mouse; details: β-TC3 cells (n=2); same results in NIT-1 cells (n=3)
# [11] = system: β-TC3 cells; assay: Cytokine-induced cell death in β-TC3 cells; assay type: cell-based, mouse; details: NiCl2 20 μM, nifedipine 10 μM; IL-1β 25 U/ml, IFNγ 100 U/ml, TNFα 100 U/ml
# Text: The function of LVA Ca^2+ channels in cytokine-mediated cell death in β-TC3 cells was then examined.
# [12] = system: L-type Ca^2+ current; assay: Patch clamp recording (whole-cell and perforated patch) of L-type Ca^2+ current in insulin-secreting (INS-1) cells; assay type: cell-based, rat; details: for effect on L-type Ca^2+ current from inside of cells: 1 μM in the pipette solution, 5 min after patch formation
# Method: as §1, §2, §3, §4, §5
# This hypothesis was tested by applying a very low dose of mibefradil on cells and recording the L-type Ca^2+ currents for a long time in the perforated patch-clamp configuration.
# [13] = system: NIT-1 cells; assay: Basal insulin secretion in NIT-1 cells; assay type: cell-based, mouse; details: 5 μM mibefradil, 3 mM glucose
# Text: NIT-1 is a cell line derived from the β-cells of non-obese-diabetic mouse. This cell line expressed high levels of T-type Ca^2+ current.
# [14] = system: NIT-1 cells; assay: Cytokine-induced cell death in NIT-1 cells; assay type: cell-based, mouse
# [15] = rat; cited from earlier work
# [16] = system: T-type Ca^2+ current; details: vascular smooth muscle cells; cited from earlier work
# [17] = Mass spectrometric analysis of mibefradil and dm-mibefradil in INS-1 cells
# Method: Mass Spectrometric Analysis—A VG 70-250 SEQ instrument (VG Analytical, Manchaster, UK) was used with fast atom bombardment (FAB) ionization mode to obtain mass spectra of the mibefradil and dm-mibefradil. Cultured INS-1 cells were treated with 20 μM mibefradil for various lengths of time under each experimental condition. The cell pellets were collected after washing three times with PBS and resuspended in 0.5 ml media for mass spectrometric analysis. For a 50 μl cell sample, 20 μl internal standard solution (40 μM verapamil, MW: 454) and 5 μl glycerol was added, and 4 μl of this mixture was used for FAB-MS. Several positive ion spectra were recorded in the mass range m/z 750-100 at a mass resolution of 1000, and a scan speed of 2 second/decade. For mibefradil, m/z 496 was the dominant ion (M+H)^+ accompanied with a less intense sodiated molecular ion m/z 518. The concentrations of the mibefradil and hydrolyzed mibefradil were obtained by comparing the intensities of m/z 496 and 424 were to the intensity of m/z 455. For calibration, a standard solution of 50 μM drug was subjected to mass spectrometric analysis.
# To test the hypothesis that mibefradil may permeate through the cell membrane to the cytoplasm and be trapped inside cells, the presence of mibefradil was examined in cells pre-incubated with 20 μM of mibefradil using mass spectrometry. […] The localization of mibefradil in cells was examined by measuring the concentration of mibefradil in the pellets and supernatants after lysis of the cells.
# [18] = 5 mM for 1 hour, followed by 3 hour recovery
# [19] = cells pre-incubated with 20 μM mibefradil
structure (smiles),measurement,setting,value
CN(N=O)C(=O)N[C@H]1C(O)O[C@H](CO)[C@@H](O)[C@@H]1O (mixture of isomers) [streptozotocin],calcium influx on stimulation by 50 KCl,[1]; [18],reduced calcium influx compared to control cells
same,change in basal calcium,[1]; [18],two-fold increase in basal calcium
[Cl][Ni][Cl] [NiCl2],"amplitude of T-type current after drug delivery, % of initial level","[2]; drug diffusing system, about 2 μl of 30 μM delivered near the cell, rapid reduction",40%
same,"amplitude of T-type current after recovery, % of initial level","[2]; drug diffusing system, about 2 μl of 30 μM, within 3 minutes",80%
same,reversibility of the inhibition of T-type Ca^2+ current,[2]; drug diffusing system,reversibly block T type Ca^2+ current
same,inhibition of spontaneous elevation of basal Ca^2+,[3],90%
same,frequency of spontaneous calcium spikes,[4],reduced the frequency of spontaneous calcium spikes immediately; also recorded: reduced the frequency of transient spontaneous elevation of [Ca^2+]i
same,onset and number of action potentials,[5],a delay in the onset of an action potential and a decrease in number of action potentials
same,insulin secretion,[6],reduced insulin secretion in a dose-dependent manner
same,insulin secretion,[7],not affected
same,block of cytokine-induced LVA Ca^2+ current,[8],blocked
same,effect on cytokine-induced increase in basal [Ca^2+]i,[9],blocked; also recorded: prevented the increase in [Ca^2+]i
same,effect on cytokine-induced DNA fragmentation,[10],prevented cytokine-induced DNA fragmentation
same,effect on cytokine-induced cell death,[11],effectively reduced the β-cells killing potency of cytokines; also recorded: significantly reduced cell death
N=C(N)NC(=O)c1nc(Cl)c(N)nc1N [amiloride],effect on cytokine-induced DNA fragmentation,[10],prevented cytokine-induced DNA fragmentation
"CC(C)[C@H]1c2ccc(F)cc2CC[C@]1(O)CCN(C)CCCc1nc2ccccc2[nH]1.Cl [dm-mibefradil, (1S,2S)-2-[2-[[3-(2-Benzimidazolyl)propyl]methylamino]ethyl]-6-fluoro-1,2,3,4-tetrahydro-1-isopropyl-2-napthyl hydroxy hydrochloride]",effect on L-type Ca^2+ current from inside of cells,[12]; whole-cell,specifically blocked
"COCC(=O)O[C@]1(CCN(C)CCCc2nc3ccccc3[nH]2)CCc2cc(F)ccc2[C@@H]1C(C)C [mibefradil, (1S,2S)-2-[2-[[3-(2-Benzimidazolyl)propyl]methyl-amino]ethyl]-6-fluoro-1,2,3,4-tetrahydro-1-isopropyl-2-napthyl methoxy-acetate dihydrochloride]",long-term effect on the T-type Ca^2+ current,"[2]; 10 nM, perforated patch",no long-term effect
same,block of T-type Ca^2+ current,"[2]; 1 μM in recording chamber, conventional whole cell patch clamp, dihydrochloride",blocks T- and L-type Ca^2+ current
same,effect on T-type Ca^2+ current from inside of cells,"[2]; 1 μM in the pipette solution, whole-cell, 5 min after patch formation",did not have inhibitory effects
same,sensitivity of T-type versus L-type Ca^2+ current,"[2]; 1 μM, pancreatic β-cells",more sensitive
same,reversibility of the inhibition of T-type Ca^2+ current,"[2]; drug diffusing system, dihydrochloride",clearly reversible; also recorded: reversibly block T type Ca^2+ current
same,time dependence of the inhibition of T-type Ca^2+ current,"[2]; whole-cell patch clamp, bath perfusion",No time-dependent inhibition
same,relative L-type Ca^2+ currents,"[12]; 10 nM mibefradil, after 25 minutes, perforated patch-clamp",70%
same,L-type current densities after incubation,"[12]; 10 nM mibefradil, two hours incubation, perforated patches",further reduction of current densities
same,effect on L-type Ca^2+ current from inside of cells,[12]; whole-cell,did not have inhibitory effects
same,"L-type Ca^2+ current, % of the beginning amplitude","[12]; 1 μM mibefradil, after 10 minutes, whole-cell, n=4",up to 70%
same,block of L-type Ca^2+ current,"[12]; 1 μM, INS-1 cells",blocks T- and L-type Ca^2+ current
same,reversibility of the inhibition of L-type Ca^2+ current,"[12]; drug diffusing system, perforated patch",poorly reversible
same,effect on basal [Ca^2+]i,"[1]; 1 μM, single INS-1 cell with basal [Ca^2+]i near 150 nM, no glucose, dihydrochloride",immediately lowered the basal calcium; also recorded: reduced basal [Ca^2+]i
same,basal insulin secretion relative to control,[13],less than 40
same,effect on cytokine-induced DNA fragmentation,[10],prevented cytokine-induced DNA fragmentation
same,effect on cytokine-induced cell death,[14],reduced β-cells death induced by cytokines
same,effect on development of hyperinsulinemia,[15],prevented and reversed development of hyperinsulinemia
same,inhibitory effect on T-type Ca^2+ current,[16],potent inhibitory effect
same,concentration of intracellular mibefradil,"[17]; cells incubated with 20 μM mibefradil for one minute, 3 washes, n=3",3.18 ± 0.78 µM
same,share of mibefradil detected in the supernatants after lysis of the cells,[17]; [19],92%
same,share of mibefradil found in the pellets after washing with methanol,[17]; [19],0%
